Results: patent US8507479B2, “Aminodihydrothiazine derivatives substituted with a cyclic group” (Shionogi & Co., Ltd., priority 2007, dated 2013)
pIC50: −log10 of the molar value. Where two headings read alike, the source gives them in different places.

Target: Recombinant human BACE-1 (Homo sapiens (Human), UniProt P56817)
Experiment: Assay of β-secretase-inhibiting activity;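 note: enzyme cleavage of a biotinylated, Europium cryptate-labelled peptide substrate, incubated 3 h at 30 °C, then probed with Streptavidin-XL665 in KF-containing phosphate buffer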
Assay type: biochemical
[1] = substrate peptide 18 nM, BACE-1 7.4 nM, pH 5.0, 30° C., 3 hours, read-out: IC50 values

Recombinant human BACE-1, sequence (P56817 46-501): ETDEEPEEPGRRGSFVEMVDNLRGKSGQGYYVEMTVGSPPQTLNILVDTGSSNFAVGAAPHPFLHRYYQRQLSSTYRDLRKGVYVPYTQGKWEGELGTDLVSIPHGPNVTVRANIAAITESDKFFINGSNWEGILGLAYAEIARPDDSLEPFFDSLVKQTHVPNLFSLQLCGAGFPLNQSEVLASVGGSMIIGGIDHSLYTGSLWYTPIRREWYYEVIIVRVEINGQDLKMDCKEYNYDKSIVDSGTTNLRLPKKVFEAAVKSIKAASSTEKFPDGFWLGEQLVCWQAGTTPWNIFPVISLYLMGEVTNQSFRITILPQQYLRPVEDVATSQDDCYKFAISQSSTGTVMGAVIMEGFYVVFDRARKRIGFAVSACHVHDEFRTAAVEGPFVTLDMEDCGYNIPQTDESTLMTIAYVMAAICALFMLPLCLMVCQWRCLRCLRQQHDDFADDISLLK

SMILES | pIC50 [1] | other results
Cc1nc(Br)sc1C(=O)Nc1cccc([C@]2(C)CCSC(N)=N2)c1 [Compound 6] | ≥ 6.00 | –
Cc1nc(C)c(C(=O)Nc2cccc([C@]3(C)CCSC(N)=N3)c2)s1 [Compound 8] | ≥ 6.00 | –
Cc1nc(C(=O)Nc2cccc([C@]3(C)CCSC(N)=N3)c2)cs1 [Compound 10] | ≥ 6.00 | –
C[C@@]1(c2cccc(N/C(=N/O)c3ncc(Cl)cc3Cl)c2)CCSC(N)=N1 [Compound 26] | – | pIC50 (Recombinant human BACE-1, Table 139, read-out: IC50): 5.31
COc1cnc(C(=O)Nc2cccc([C@]3(C)CCSC(N)=N3)c2)c(N)n1 [Compound 29] | ≥ 6.00 | –
C[C@@]1(c2cc(NC(=O)c3cnc(N=NN)cn3)ccc2F)CCSC(N)=N1 [Compound 79] | ≥ 6.00 | –
COCCOc1cnc(C(=O)Nc2cc(F)c(F)c([C@]3(C)CCSC(N)=N3)c2)cn1 [Compound 148] | ≥ 6.00 | –
Cc1nc(C(=O)Nc2cncc([C@]3(C)CCSC(N)=N3)c2)c(C)o1 [Compound 461] | ≥ 6.00 | –
Cc1cnc(C(=O)Nc2cc([C@]3(C)CCSC(N)=N3)c3oc(C)cc3c2)cn1 [Compound 468] | ≥ 6.00 | –
Cn1nc(Cl)cc1C(=O)Nc1cncc([C@]2(C)CCSC(N)=N2)c1 [Compound 478] | ≥ 6.00 | –
C[C@@]1(c2cc(NC(=O)c3ncc(O)cc3F)ccc2F)CCSC(N)=N1 [Compound 491] | ≥ 6.00 | –
C[C@@]1(c2cc(NC(=O)c3cn4ccccc4n3)ccc2F)CCSC(N)=N1 [Compound 502] | ≥ 6.00 | –
Cc1nc(C(=O)Nc2ccc(F)c([C@]3(C)CCSC(N)=N3)c2)cs1 [Compound 505] | ≥ 6.00 | –
CC1(c2cc(NC(=O)c3cnc(Cl)cn3)ccc2Br)CCSC(N)=N1 (stereo not shown) [Compound 517] | ≥ 6.00 | –
CC(=O)c1ccc(C(=O)Nc2ccc(F)c([C@]3(C)CCSC(N)=N3)c2)s1 [Compound 530] | ≥ 6.00 | –
C[C@@]1(c2cc(NC(=O)c3cnc(-c4ccsc4)cn3)ccc2F)CCSC(N)=N1 [Compound 537] | ≥ 6.00 | –
Cc1cc(C(=O)Nc2ccc(F)c([C@]3(C)CCSC(N)=N3)c2)n(C(C)(C)C)n1 [Compound 538] | ≥ 6.00 | –
C[C@@]1(c2cc(NC(=O)c3ccc(OCC(N)=O)cn3)ccc2F)CCSC(N)=N1 [Compound 559] | ≥ 6.00 | –
Cc1cnc(C(=O)Nc2cccc([C@]3(C)CCSC(N)=N3)c2)cn1 [Compound 563] | ≥ 6.00 | –
C[C@@]1(c2cc(NC(=O)c3ccc(OCC#CCN)cn3)ccc2F)CCSC(N)=N1 [Compound 566] | ≥ 6.00 | –

SMILES | pIC50 [1] | other results
Cc1cnn(-c2cnc(C(=O)Nc3ccc(F)c([C@]4(C)CCSC(N)=N4)c3)cn2)c1 [Compound 577] | ≥ 6.00 | –
C[C@@]1(c2cncc(NC(=O)c3cnc(Cl)cn3)c2)CCSC(N)=N1 [Compound 597] | ≥ 6.00 | –
C[C@@]1(c2ccnc(NC(=O)c3ccc(Cl)cn3)c2)CCSC(N)=N1 [Compound 598] | ≥ 6.00 | –
C[C@@]1(c2cccc(NC(=O)c3ccc(Cl)cn3)n2)CCSC(N)=N1 [Compound 599] | ≥ 6.00 | –
CC1(C)C[C@@](C)(c2cc(NC(=O)c3coc(Cl)n3)ccc2F)N=C(N)S1 [Compound 645] | ≥ 6.00 | –
Cc1nc(C(=O)Nc2ccc(F)c([C@@]3(C)N=C(N)SCC3(C)C)c2)co1 [Compound 648] | ≥ 6.00 | –
CC1(C)C[C@@](C)(c2cc(NC(=O)c3ccc(O)cn3)ccc2F)N=C(N)S1 [Compound 650] | ≥ 6.00 | –
Cc1cn2cc(C(=O)Nc3ccc(F)c([C@]4(C)CCSC(N)=N4)c3)ncc2n1 [Compound 652] | ≥ 6.00 | –
Cc1nc(C(=O)Nc2ccnc([C@]3(C)CC(C)(C)SC(N)=N3)c2)co1 [Compound 654] | ≥ 6.00 | –
CC1(C)C[C@@](C)(c2cc(NC(=O)c3ncccc3F)ccn2)N=C(N)S1 [Compound 655] | ≥ 6.00 | –
C[C@]1(c2cc(NC(=O)c3ncccc3F)ccc2F)N=C(N)SCC1(F)F [Compound 660] | ≥ 6.00 | –
Cc1cnc(C(=O)Nc2ccc(F)c([C@@]3(C)N=C(N)SCC3(F)F)c2)cn1 [Compound 662] | ≥ 6.00 | –
Cc1nc(C(=O)Nc2ccc(F)c([C@@]3(C)N=C(N)SCC3(F)F)c2)co1 [Compound 664] | ≥ 6.00 | –
CCCCc1ccc(C(=O)Nc2ccc(F)c([C@@]3(C)N=C(N)SCC3(F)F)c2)nc1 [Compound 665] | ≥ 6.00 | –
COc1nc(C(=O)Nc2ccc(F)c([C@]3(C)CCSC(N)=N3)c2)co1 [Compound 667] | ≥ 6.00 | –
C[C@@]1(c2cc(NC(=O)c3coc(C(F)(F)F)n3)ccc2F)CCSC(N)=N1 [Compound 669] | ≥ 6.00 | –
Cc1cnc(C(=O)Nc2ccc(F)c([C@@]3(C)N=C(N)SCC34CC4)c2)cn1 [Compound 674] | ≥ 6.00 | –
COc1cnc(C(=O)Nc2ccc(F)c([C@@]3(C)N=C(N)SCC3=O)c2)cn1 [Compound 689] | ≥ 6.00 | –
CC1(C)C[C@@](C)(c2cccc(NC(=O)c3ccc(C#N)cn3)c2)N=C(N)S1 [Compound 696] | ≥ 6.00 | –
C[C@@]1(c2cc(NC(=O)c3cnc(NCC#N)cn3)ccc2F)CCSC(N)=N1 [Compound 701] | – | pIC50 (Recombinant human BACE-1, same assay, table, read-out: IC50): 6.70
